Measurements: patent US4783443A, “Amino acyl cephalosporin derivatives” (The University of Chicago, priority 1986, dated 1988)
≈ marks a conversion by molar mass, not a printed value. Counter-ions that a name gives are not always drawn.

Legend:
Enterobacter areogenes = assay: Minimum inhibitory concentration (MIC); type: cell-based; settings: Gram-negative
Source text: (§1) The antibacterial effects of compounds of the invention have been assessed by determination of the minimum inhibitory concentration (M.I.C.) value against a variety of Gram-negative and -positive bacteria. The microbial susceptibility data for four compounds, together with those for the antibacterial dipeptide beta-Cl-LAla-beta-Cl-LAla, are given in Table I.
(§2) in uM to facilitate a meaningful comparison of the approximate MICs among
(§3) the tested compounds; an appreciation of the MIC values in ug/mL can be
(§4) obtained by multiplying each value (μM) by 0.55

Enterobacter cloacae = assay: Minimum inhibitory concentration (MIC); type: cell-based; settings: Gram-negative, read-out: Minimum Inhibitory Concentration
Source text: as §1, §2, §3, §4

Escherichia coli CR = assay: Minimum inhibitory concentration (MIC); type: cell-based; settings: Escherichia coli CR; read-out: Minimum Inhibitory Concentration
Source text: as §1, §2, §3, §4

Escherichia coli DB4548 = assay: Minimum inhibitory concentration (MIC); type: cell-based
Source text: as §1, §2, §3, §4

Escherichia coli JSR-O = assay: Minimum inhibitory concentration (MIC); type: cell-based; settings: Escherichia coli JSR-O; parental strain; read-out: Minimum Inhibitory Concentration
Source text: as §1, §2, §3, §4

[1] = test system: Hemophilus influenzae 236; assay: Minimum inhibitory concentration (MIC); type: cell-based; settings: Haemophilus influenzae
Source text: as §1, §2, §3, §4

[2] = test system: Hemophilus influenzae 238; assay: Minimum inhibitory concentration (MIC); type: cell-based; settings: Haemophilus influenzae
Source text: as §1, §2, §3, §4

[3] = test system: Hemophilus influenzae 487; assay: Minimum inhibitory concentration (MIC); type: cell-based; settings: Haemophilus influenzae, possesses a betalactamase
Source text: as §1, §2, §3, §4

Klebsiella pneumoniae = assay: Minimum inhibitory concentration (MIC); type: cell-based; settings: Gram-negative
Source text: as §1, §2, §3, §4

Morganella morganii = assay: Minimum inhibitory concentration (MIC); type: cell-based; settings: Gram-negative
Source text: as §1, §2, §3, §4

Psuedomonas aeruginosa = assay: Minimum inhibitory concentration (MIC); type: cell-based; settings: Gram-negative
Source text: as §1, §2, §3, §4

[4] = test system: Salmonella typhimurium LT 2; assay: Minimum inhibitory concentration (MIC); type: cell-based; settings: Salmonella enterica, Gram-negative
Source text: as §1, §2, §3, §4

Salmonella typhimurium = assay: Minimum inhibitory concentration (MIC); type: cell-based; settings: Salmonella enterica, Gram-negative
Source text: as §1, §2, §3, §4

Serratia marcescens = assay: Minimum inhibitory concentration (MIC); type: cell-based; settings: Gram-negative
Source text: as §1, §2, §3, §4

Shigella flexneri = assay: Minimum inhibitory concentration (MIC); type: cell-based; settings: Gram-negative
Source text: as §1, §2, §3, §4

[5] = test system: Staphylococcus aureus H-2690-8^R; assay: Minimum inhibitory concentration (MIC); type: cell-based; settings: possesses a betalactamase
Source text: as §1, §2, §3, §4

[6] = test system: Staphylococcus aureus PSL-13 Pen^R; assay: Minimum inhibitory concentration (MIC); type: cell-based; settings: possesses a betalactamase
Source text: as §1, §2, §3, §4

[7] = test system: Staphylococcus aureus PSL-14 Pen^R; assay: Minimum inhibitory concentration (MIC); type: cell-based; settings: possesses a betalactamase
Source text: as §1, §2, §3, §4

[8] = test system: Staphylococcus aureus PSL-15 Pen^R; assay: Minimum inhibitory concentration (MIC); type: cell-based; settings: possesses a betalactamase
Source text: as §1, §2, §3, §4

[9] = test system: Staphylococcus aureus PSL-16 Pen^R; assay: Minimum inhibitory concentration (MIC); type: cell-based; settings: possesses a betalactamase
Source text: as §1, §2, §3, §4

[10] = test system: Staphylococcus aureus T-4624-8 Pen^R; assay: Minimum inhibitory concentration (MIC); type: cell-based; settings: possesses a betalactamase
Source text: as §1, §2, §3, §4

Streptococcus agalactiae = assay: Minimum inhibitory concentration (MIC); type: cell-based; settings: Gram positive
Source text: as §1, §2, §3, §4

Streptococcus faecalis = assay: Minimum inhibitory concentration (MIC); type: cell-based; settings: Enterococcus faecalis; Streptococcus faecalis; Gram positive; read-out: Minimum Inhibitory Concentration
Source text: as §1, §2, §3, §4

[11] = test system: Escherichia coli JSR-O Cl-Pep^R; assay: Minimum inhibitory concentration (MIC); type: cell-based; settings: Escherichia coli, read-out: Minimum Inhibitory Concentration
Source text: as §1, §2, §3, §4
^(g) This ia an E. coli JSRO strain selected for resistance to the
A comparison of the data for E. coli strains JSR-O and JSR-O Cl-Pep^R is of special interest. E. coli Cl-Pep^R is an E. coli JSR-O mutant which was selected for resistance to the dipeptide (f). […] Note that the MIC values for (d) and (e) against E. coli Cl-Pep^R (100 and 50 μM, respectively) are quite similar.

[12] = test system: Escherichia coli JSR-O pBR322; assay: Minimum inhibitory concentration (MIC); type: cell-based; settings: read-out: Minimum Inhibitory Concentration
Source text: as §1, §2, §3, §4
^(i) Contains the plasmid gene encoding the TEM betalactamase.

Corynebacterium JKM-4754 = assay: Minimum inhibitory concentration (MIC); type: cell-based; settings: JKM4754; Corynebacterium JKM-4754; resistant to cephalothin; read-out: Minimum Inhibitory Concentration
Source text: as §1, §2, §3, §4
(§5) ^(j) Resistant to cephalothin (MIC >200 uM);

Corynebacterium JKR-2285 = assay: Minimum inhibitory concentration (MIC); type: cell-based; settings: JKR2285; Corynebacterium JKR-2285; resistant to cephalothin; read-out: Minimum Inhibitory Concentration
Source text: as §1, §2, §3, §4, §5

Escherichia coli Ceph^R = assay: Minimum inhibitory concentration (MIC); type: cell-based; settings: Escherichia coli, read-out: Minimum Inhibitory Concentration
Source text: as §1, §2, §3, §4, §5

[13] = test system: Staphylococcus epidermidis (P^R M^R); assay: Minimum inhibitory concentration (MIC); type: cell-based; settings: no strain number
Source text: as §1, §2, §3, §4
(§6) ^(k) P and M refer to penicillin and methicillin, respectively.

[14] = test system: Staphylococcus epidermidis 1239(P^R M^R); assay: Minimum inhibitory concentration (MIC); type: cell-based
Source text: as §1, §2, §3, §4, §6

[15] = test system: Staphylococcus epidermidis MO1554(P^S M^S); assay: Minimum inhibitory concentration (MIC); type: cell-based; settings: Staphylococcus epidermidis MO1554 (penicillin- and methicillin-sensitive, P^S M^S)
Source text: as §1, §2, §3, §4, §6

[16] = test system: Gram-negative and -positive bacteria; assay: Antibacterial activity, general trends of the MIC panel of Table I; type: cell-based; settings: E. cloacae, all of the susceptible E. coli strains, H. influenzae 487, all of the S. aureus strains
Source text: as §1

[17] = biological target: E. coli TEM beta-lactamase (Escherichia coli, UniProt P62593); assay: Kinetics of enzymatic turnover by E. coli TEM beta-lactamase; type: biochemical
Sequence of E. coli TEM beta-lactamase (P62593 24-286 limits assumed): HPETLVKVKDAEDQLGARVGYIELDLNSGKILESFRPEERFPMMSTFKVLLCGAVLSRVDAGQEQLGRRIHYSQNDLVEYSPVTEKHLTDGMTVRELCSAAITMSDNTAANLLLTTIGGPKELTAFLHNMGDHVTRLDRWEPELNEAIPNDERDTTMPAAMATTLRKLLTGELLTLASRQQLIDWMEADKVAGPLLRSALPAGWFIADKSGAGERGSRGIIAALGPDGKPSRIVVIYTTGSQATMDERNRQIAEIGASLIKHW
Description: Escherichi coli TEM beta-lactamase was purchased from Applied Microbiology and Research, Porton Down, U.K. L-Alanyl-L-alanine was purchase from Sigma; N-BOC-LAla-LAla and N-BOC-beta-Cl-LAla-beta-Cl-LAla were prepared as described previously. Cheung et al supra. All other reagents were of the best grade commercially available.
Kinetic Constants for the Reactions of E. coli TEM beta-Lactamase with Cephalothin and the Cephalosporin Peptide Esters 7 and 17.

SMILES | MIC (Enterobacter areogenes) [µM] | MIC (Enterobacter cloacae) [µM] | MIC (Escherichia coli CR) [µM] | MIC (Escherichia coli DB4548) [µM] | MIC (Escherichia coli JSR-O) [µM] | MIC [1] [µM] | MIC [2] [µM] | MIC [3] [µM] | MIC (Klebsiella pneumoniae) [µM] | MIC (Morganella morganii) [µM] | MIC (Psuedomonas aeruginosa) [µM] | MIC [4] [µM] | MIC (Salmonella typhimurium) [µM] | MIC (Serratia marcescens) [µM] | MIC (Shigella flexneri) [µM] | MIC [5] [µM] | MIC [6] [µM] | MIC [7] [µM] | MIC [8] [µM] | MIC [9] [µM] | other results
C[C@H](N)C(=O)OCC1=C(C(=O)O)N2C(=O)[C@@H](NC(=O)Cc3cccs3)[C@H]2SC1 [(b), 7-beta-(2-thienylacetamido)-3-(L-alanyloxymethyl)-3-cephem-4-carboxylic acid] | > 200 | > 200 | 100 (≈ 42.5 µg/mL) | 50 (≈ 21.3 µg/mL) | 100 (≈ 42.5 µg/mL) | 50 (≈ 21.3 µg/mL) | ≤ 0.78 | 50 (≈ 21.3 µg/mL) | > 200 | 100 (≈ 42.5 µg/mL) | > 200 | 50 (≈ 21.3 µg/mL) | > 200 | > 200 | 100 (≈ 42.5 µg/mL) | 100 (≈ 42.5 µg/mL) | 200 (≈ 85.1 µg/mL) | > 200 | 100 (≈ 42.5 µg/mL) | > 200 | MIC [10]: 100 µM (≈ 42.5 µg/mL); MIC (Streptococcus agalactiae): ≤ 0.78 µM; MIC (Streptococcus faecalis): > 100 µM; MIC [11]: > 200 µM; MIC [12]: 50 µM (≈ 21.3 µg/mL); MIC (Corynebacterium JKM-4754): > 200 µM; MIC (Corynebacterium JKR-2285): > 200 µM; MIC (Escherichia coli Ceph^R): > 200 µM; MIC [13]: 1.56 µM (≈ 0.664 µg/mL); MIC [14]: ≤ 0.78 µM; MIC [15]: ≤ 0.78 µM; sensitivity observed [16]: no activity was seen
N[C@@H](CCl)C(=O)OCC1=C(C(=O)O)N2C(=O)[C@@H](NC(=O)Cc3cccs3)[C@H]2SC1 [(c), 7-beta-(2-thienylacetamido)-3(beta-chloro-L-alanyloxymethyl)-3-cephem-4-carboxylic acid] | > 200 | 100 (≈ 46 µg/mL) | 50 (≈ 23 µg/mL) | 50 (≈ 23 µg/mL) | 100 (≈ 46 µg/mL) | 25 (≈ 11.5 µg/mL) | ≤ 0.78 | 25 (≈ 11.5 µg/mL) | > 200 | 100 (≈ 46 µg/mL) | > 200 | 25 (≈ 11.5 µg/mL) | 100 (≈ 46 µg/mL) | > 200 | 100 (≈ 46 µg/mL) | 6.25 (≈ 2.87 µg/mL) | 25 (≈ 11.5 µg/mL) | 25 (≈ 11.5 µg/mL) | 12.5 (≈ 5.75 µg/mL) | 255 (≈ 117 µg/mL) | MIC [10]: 6.25 µM (≈ 2.87 µg/mL); MIC (Streptococcus agalactiae): ≤ 0.78 µM; MIC (Streptococcus faecalis): 200 µM (≈ 92 µg/mL); MIC [11]: > 200 µM; MIC (Corynebacterium JKM-4754): > 200 µM; MIC (Corynebacterium JKR-2285): > 200 µM; MIC (Escherichia coli Ceph^R): > 200 µM; MIC [13]: ≤ 0.78 µM; MIC [14]: ≤ 0.78 µM; MIC [15]: ≤ 0.78 µM; sensitivity observed [16]: sensitivity was observed
C[C@H](N)C(=O)N[C@@H](C)C(=O)OCC1=C(C(=O)O)N2C(=O)[C@@H](NC(=O)Cc3cccs3)[C@H]2SC1 [(d), Sodium 7-beta-(2-thienylacetamido)-3-(L-alanyl-L-alanyloxymethyl)-3-cephem-4-carboxylate, toluenesulfonic acid salt] | > 200 | 200 | 200 | 50 | 200 | 50 | ≤ 0.78 | 12.5 | > 200 | 100 | > 200 | 25 | 100 | > 200 | 100 | 25 | > 200 | > 200 | > 200 | 200 | MIC [10]: 25 µM; MIC (Streptococcus agalactiae): ≤ 0.78 µM; MIC (Streptococcus faecalis): 50 µM; MIC [11]: 100 µM; MIC [12]: > 200 µM; MIC (Corynebacterium JKM-4754): > 200 µM; MIC (Corynebacterium JKR-2285): > 200 µM; MIC (Escherichia coli Ceph^R): > 200 µM; MIC [13]: ≤ 0.78 µM; MIC [14]: ≤ 0.78 µM; MIC [15]: ≤ 0.78 µM; sensitivity observed [16]: no activity was seen; Vmax compared with cephalothin [17]: substantially greater than that obtained for cephalothin; substrate for the lactamase [17]: found to be substrates for the E. coli TEM beta-lactamase; binding to the lactamase (KM approximating KS) ([17]; effect of the C10-dipeptidyl substituent): do not compromise the binding of the cephalosporin nucleus to the lactamase
